Assay results published in patent publication US12617767B2, “Crystalline forms of somatostatin modulators” (Crinetics Pharmaceuticals, Inc., priority 2019, dated 2026).
Marks after values point to notes of the source that are not given here.

How the values were obtained:
Type in all cases: physicochemical
[1] = Stability of XRPD pattern on drying; conditions: for XRPD pattern upon drying: dimesylate
Description: Short term slurries were carried out at two temperatures in 14 solvents. About 25 mg solid was added to a 2 mL vial followed by 0.70 mL of solvent. If all solids dissolved, more solid was added until a slurry was formed within reason. Slurries were stirred at constant temperature for four days (ambient temperature, 21-23° C.; or high temperature, 50° C.). After stirring for four days, solids were allowed to settle and were then recovered for XRPD analysis. XRPD analysis was performed on the wet cake, and if a new pattern was observed, the sample was dried in a vacuum oven at 50° C. for a minimum of 4 hours, then the dried sample was analyzed by XRPD.
Stability on Drying: A sample of Pattern B was prepared on an XRPD sample holder and analysed by XRPD to create a baseline. The disk was then left in a vacuum oven at 50° C. under static vacuum for 3 days. On the third day, the sample was removed from the oven and the “dry” pattern was recorded immediately.
(§1) Compound A⋅2MSA (Pattern A) was slurried in EtOH overnight at room temperature (ca. 16 hours). […] The bulk was dried in a vacuum oven at 50° C. under dynamic vacuum for 4.5 hours. The dried solids were removed from the oven and a “dry” XRPD analysis was collected.

[2] = Equilibrium solubility in simulated fluids and water at 37° C.; conditions: for comments / Concentration: 24 hrs; for Concentration: mg of Compound A (free base); for Concentration / pH (24 hr): dimesylate
Description: The solubility Compound A⋅2MSA, Patterns A, B and I, was measured in water, fasted state simulated gastric fluid (FaSSGF) and fasted state simulated intestinal fluid (FaSSIF) at 37° C. by slurrying in the respective media for 24 hours. 1.5 mL of the fluid was stirred at 37° C. About 5 mg of the specified solid was added to FaSSIF and a thin slurry was immediately formed. As a test, approximately 80 and 60 mg of Pattern A was added to 1.5 mL of water and FaSSGF, respectively without formation of a slurry. Therefore, about 10 mg of the desired Pattern was added to water and FaSSGF solutions. The samples were allowed to stir at 37° C. for 24 hrs. The stir bars were removed from the FaSSIF vials and the solids allowed to settle for 0.5 hours at 37° C. The supernatant/solutions were syringe filtered and recovered for analysis by HPLC as well as for pH measurement.

[3] = Storage at ambient conditions (XRPD)
Description: Characterization after storage under ambient conditions: Pattern B was left at ambient conditions (21-22° C., 10-40% RH) for a week then characterized by)(RFD, TGA/DSC, and water content measured by Karl-Fischer titration. […] The water content was confirmed by KF titration which yielded a value of 4.20 wt. %.
Compound A⋅2MSA (Pattern A, 0.2622 g) was added to a 20 mL vial with a stir bar. Fifteen volumes (3.93 mL) of EtOH was added and the slurry was stirred overnight (˜20 hours). The slurry was sampled to confirm the correct pattern was generated, then the solids were collected by filtration. The resultant yellow solid was dried in a vacuum oven at 50° C. under dynamic vacuum for 2 hours, then under static vacuum overnight (˜16 hours) to yield 0.2015 g (77% yield). The in-situ sample drawn was dried for 3 hours then the solid was used for characterization by solution ^1H-NMR spectroscopy and simultaneous TGA/DSC. The bulk was dried overnight and used for stand-alone DSC, and thermal treatment.
as §1
Compound A⋅2MSA (Pattern A, 0.2659 g) was added to a 20 mL vial with a stir bar. Twenty-five volumes (6.65 mL) of ACN was added and the slurry was stirred overnight (˜20 hours). The slurry was sampled to confirm the correct pattern was generated, then the solids were collected by filtration. The resultant yellow solid was dried in a vacuum oven at 50° C. under dynamic vacuum for 2 hours, then under static vacuum overnight (˜16 hours) to yield 0.2255 g (85% yield). The sample drawn was dried for 3 hours then the solid was used for characterization by solution ^1H-NMR spectroscopy and simultaneous TGA/DSC. The bulk was dried overnight and used for stand-alone DSC.

[4] = Dynamic Vapor Sorption (DVS); conditions: between 2% and 95% Relative Humidity (RH); dimesylate
Description: Dynamic Vapor Sorption (DVS) was done using a DVS Intrinsic 1. The sample is loaded into a sample pan and suspended from a microbalance. A typical sample mass for DVS measurement is 25 mg. Nitrogen gas bubbled through distilled water provides the desired relative humidity.
A typical measurement comprises the steps: • 1—Equilibrate at 50% RH • 2-50% to 2%. (50%, 40%, 30%, 20%, 10% and 2%) • a. Hold minimum of 5 mins and maximum of 240 minutes at each humidity. The pass criteria is less than 0.002% change • 3-2% to 95% (2%, 10%, 20%, 30%, 40%, 50%, 60%, 70%, 80%, 90%, 95%) • a. Hold minimum of 5 mins and maximum of 240 minutes at each humidity. The pass criteria is less than 0.002% change • 4-95% to 2% (95%, 80%, 70%, 60%, 50%, 40%, 30%, 20%, 10%, 2%) • a. Hold minimum of 5 mins and maximum of 240 minutes at each humidity. The pass criteria is less than 0.002% change • 5-2% to 50% (2%, 10%, 20%, 30%, 40%, 50%) • a. Hold minimum of 5 mins and maximum of 240 minutes at each humidity. The pass criteria is less than 0.002% change Dynamic Vapor Sorption Isotherm Plots of Solid Forms of Compound A⋅2MSA

[5] = Kinetic solubility studies in FaSSIF and FeSSIF; conditions: FeSSIF
Description: The solubility of the dimesylate (Pattern B) and mono-HCl salts of Compound A was determined in FaSSIF (pH 6.5) at 37° C. after a slurry time of 5, 20 and 40 minutes. FaSSIF was warmed to 37° C. and added to a vial of ca. 9 mg of the salt to mark t=0. The mixture was kept stirring at 37° C. and a sample drawn with a syringe at t+5, 20 and 40 minutes. The samples were syringe filtered and the filtrate was diluted 2× to ensure no precipitation while waiting for HPLC analysis. The pH of the solution collected at 40 minutes was measured. The slurry was sampled again the following day and the supernatant from syringe filtration was analyzed directly by HPLC without dilution. The same experiment was run with FeSSIF (pH 5.0).

[6] = solids from short term slurries, vacuum oven at 50° C., minimum of 4 hours
[7] = solids from amorphous slurry or antisolvent experiments

## CS(=O)(=O)O.CS(=O)(=O)O.N#Cc1cccc(-c2ccc3ncc(-c4cc(F)cc(F)c4)c(N4CCC(N)CC4)c3c2)c1O [Pattern H, 3-(4-(4-aminopiperidin-1-yl)-3-(3,5-difluorophenyl)quinolin-6-yl)-2-hydroxybenzonitrile dimesylate]
[1]; [6]
  XRPD pattern upon drying: converted to Pattern I

## CS(=O)(=O)O.CS(=O)(=O)O.N#Cc1cccc(-c2ccc3ncc(-c4cc(F)cc(F)c4)c(N4CCC(N)CC4)c3c2)c1O [Pattern C, 3-(4-(4-aminopiperidin-1-yl)-3-(3,5-difluorophenyl)quinolin-6-yl)-2-hydroxybenzonitrile dimesylate]
[1]; [6]
  XRPD pattern upon drying: stable upon drying
[1]; vacuum oven at 50° C. under dynamic vacuum for 4.5 hours
  XRPD pattern after drying: a combination of Patterns C and I
[2]; FaSSGF (pH 1.70)
  comments: dissolved
  pH (24 hr): 1.84
[2]; FaSSGF (pH 1.70), above calibration range
  Concentration: >7.75^b mg/mL
[2]; FaSSIF (pH 6.48)
  comments: disproportionated
  Concentration: 0.010 mg/mL
  pH (24 hr): 6.06
[2]; water
  comments: dissolved
  pH (24 hr): 3.09
[2]; water, above calibration range
  Concentration: >6.59^b mg/mL
[3]; 24 hours
  XRPD pattern of wet sample left at ambient conditions: did not change
[3]; bulk, 6 days at ambient conditions, dimesylate
  XRPD pattern after storage at ambient conditions: a pattern resembling Pattern I

## CS(=O)(=O)O.CS(=O)(=O)O.N#Cc1cccc(-c2ccc3ncc(-c4cc(F)cc(F)c4)c(N4CCC(N)CC4)c3c2)c1O [Pattern G, 3-(4-(4-aminopiperidin-1-yl)-3-(3,5-difluorophenyl)quinolin-6-yl)-2-hydroxybenzonitrile dimesylate]
[1]; [6]
  XRPD pattern upon drying: converted to Pattern I

## CS(=O)(=O)O.CS(=O)(=O)O.N#Cc1cccc(-c2ccc3ncc(-c4cc(F)cc(F)c4)c(N4CCC(N)CC4)c3c2)c1O [Pattern N, 3-(4-(4-aminopiperidin-1-yl)-3-(3,5-difluorophenyl)quinolin-6-yl)-2-hydroxybenzonitrile dimesylate]
[1]; [7]
  XRPD pattern upon drying: stable upon drying

## CS(=O)(=O)O.CS(=O)(=O)O.N#Cc1cccc(-c2ccc3ncc(-c4cc(F)cc(F)c4)c(N4CCC(N)CC4)c3c2)c1O [Pattern D, 3-(4-(4-aminopiperidin-1-yl)-3-(3,5-difluorophenyl)quinolin-6-yl)-2-hydroxybenzonitrile dimesylate]
[1]; [6]
  XRPD pattern upon drying: converted to Pattern A

## CS(=O)(=O)O.CS(=O)(=O)O.N#Cc1cccc(-c2ccc3ncc(-c4cc(F)cc(F)c4)c(N4CCC(N)CC4)c3c2)c1O [Pattern A, 3-(4-(4-aminopiperidin-1-yl)-3-(3,5-difluorophenyl)quinolin-6-yl)-2-hydroxybenzonitrile dimesylate]
[4]
  reversible water uptake (DVS): 9.8 % w/w
[1]; [6]
  XRPD pattern upon drying: stable upon drying
[2]; FaSSGF
  amount added to 1.5 mL without formation of a slurry: ~60 mg
[2]; water
  amount added to 1.5 mL without formation of a slurry: approximately 80 mg

## CS(=O)(=O)O.CS(=O)(=O)O.N#Cc1cccc(-c2ccc3ncc(-c4cc(F)cc(F)c4)c(N4CCC(N)CC4)c3c2)c1O [Compound A⋅2MSA, 3-(4-(4-aminopiperidin-1-yl)-3-(3,5-difluorophenyl)quinolin-6-yl)-2-hydroxybenzonitrile dimesylate]
[5]
  solubility relative to the HCl salt: 12 ×

## CS(=O)(=O)O.CS(=O)(=O)O.N#Cc1cccc(-c2ccc3ncc(-c4cc(F)cc(F)c4)c(N4CCC(N)CC4)c3c2)c1O [Pattern F, 3-(4-(4-aminopiperidin-1-yl)-3-(3,5-difluorophenyl)quinolin-6-yl)-2-hydroxybenzonitrile dimesylate]
[1]; [6]
  XRPD pattern upon drying: converted to Pattern I

## CS(=O)(=O)O.CS(=O)(=O)O.N#Cc1cccc(-c2ccc3ncc(-c4cc(F)cc(F)c4)c(N4CCC(N)CC4)c3c2)c1O [Pattern M, 3-(4-(4-aminopiperidin-1-yl)-3-(3,5-difluorophenyl)quinolin-6-yl)-2-hydroxybenzonitrile dimesylate]
[1]; [7]
  XRPD pattern upon drying: lost crystallinity upon drying

## CS(=O)(=O)O.CS(=O)(=O)O.N#Cc1cccc(-c2ccc3ncc(-c4cc(F)cc(F)c4)c(N4CCC(N)CC4)c3c2)c1O [Pattern O, 3-(4-(4-aminopiperidin-1-yl)-3-(3,5-difluorophenyl)quinolin-6-yl)-2-hydroxybenzonitrile dimesylate]
[1]; [7]
  XRPD pattern upon drying: stable upon drying

## CS(=O)(=O)O.CS(=O)(=O)O.N#Cc1cccc(-c2ccc3ncc(-c4cc(F)cc(F)c4)c(N4CCC(N)CC4)c3c2)c1O [Pattern E, 3-(4-(4-aminopiperidin-1-yl)-3-(3,5-difluorophenyl)quinolin-6-yl)-2-hydroxybenzonitrile dimesylate]
[1]; [6]
  XRPD pattern upon drying: converted to Pattern A
